“And” between values parts separate entries of the source, which are not always exact repeats. Equal entries are not always repeated.
What was measured:
[1] = test system: adolescents with SVHD who had undergone Fontan palliation; assay: FUEL trial, safety and tolerability (adverse event reports); type: in vivo, human
Text: (§1) The primary outcome was the change in oxygen consumption at peak exercise (max or peak VO2) from baseline to the 26-week visit. Secondary exercise outcomes included change in additional measures at maximal exertion, as well as change in measures of submaximal exercise at the ventilatory anaerobic threshold (VAT). The primary outcome for clinical secondary aims included change in myocardial performance index (MPI), an echocardiographically-derived measure of systolic and diastolic ventricular function, change in log-transformed reactive hyperemia index (lnRHI), a PAT-derived measure of peripheral vascular function, and change in log-transformed serum BNP level. Safety was monitored through adverse event reports, which were collected according to a pre-specified protocol of study coordinator outreach, and through ad hoc patient and family communication with members of the study team at each site.
The primary outcome for clinical secondary aims included the between group differences in change in myocardial performance index (MPI), an echocardiographically-derived measure of systolic and diastolic ventricular function, change in log-transformed reactive hyperemia index (lnRHI), a PAT-derived measure of peripheral vascular function, and change in log-transformed serum BNP level. Measurements for each of these secondary outcomes were performed at core labs. Safety was monitored through adverse event reports, which were collected according to a pre-specified protocol of study coordinator outreach, and through adhoc patient and family communication with members of the study team at each site.
A sample size of 200 participants per arm was chosen to allow for 90% power to detect a mean treatment difference in change from baseline to 26-week testing in peak VO2 of 10% with a type 1 error of 0.05. We assumed a baseline standard deviation of 7.235 ml/kg/min, a correlation between peak VO2 measurements of 0.33, a drop-out and incomplete testing rate of 10%, and failure to reach maximal effort at the 26-week exercise testing in 15% of participants. These assumptions were based on historical data and reflect a conservative approach to assessing within-participant correlations and failure to reach maximal effort and the analysis was performed using a two-sample, independent means t-test. The primary analysis used the intention-to-treat population to evaluate the difference in the change in the primary outcome between treatment arms. This difference was assessed with an analysis of covariance (ANCOVA) with fixed factors for ventricular morphology (single left versus single right or mixed) and treatment group, with a continuous covariate of baseline peak VO2. For those without data at the 26-week visit, this value was imputed as equal to the baseline value (no change). The alpha level was set at 0.05 with two-sided testing. All statistical analyses were performed using SAS statistical software 9.4 (SAS Institute, Inc., Cary, North Carolina). Secondary analyses included participants who successfully completed the protocol with measurable values at each of the secondary endpoints. Secondary outcomes of continuous data points were analyzed in the manner described for the primary outcome. In order to assess the generalizability of findings at the ventilatory anaerobic threshold, demographic and clinical characteristics were compared between participants without paired VO2 at VAT data and those comprising the remainder of the cohort using the Student's t-test and Fisher's exact test. Fisher's exact test was used to compare adverse events between the udenafil and placebo cohorts.

[2] = test system: adolescents with SVHD who had undergone Fontan palliation; assay: FUEL trial, echocardiographic myocardial performance index (blood pool Doppler); type: in vivo, human; settings: for MPI difference, Week 26 − Baseline, mean (SD): paired data, decrease shows improvement, p 0.028 vs placebo
Text: Generally speaking, MPI (also referred to as the Doppler-derived index or Tei Index) is a measure of ventricular systolic and diastolic function as determined by a focused echocardiogram. It combines systolic and diastolic time intervals to assess heart function. More specifically, MPI can be used to assess ventricular performance represented by a numeric value using cardiac time intervals. This numeric value equals the sum of isovolumetric contraction time (ICT) and isovolumetric relaxation time (IRT) divided by ejection time (ET) and can be determined for either the left or right ventricle. Pellett, A. A., et al.: The Tei Index: Methodology and Disease. State Values. Echocardiography. A Jrnl. of CV Ultrasound & Allied Tech. 21(7):669-672 (2004); and Ulugay, A., Tatli E.: Myocardial performance index. Anadolu Kardiyol Derg 8(2):143-8 (April, 2008), both of which are incorporated herein by reference in their entireties. In the FUEL Trial, the MPI measured the performance of the single functioning ventricle. Thus, the MPI results from the FUEL Trial were determined by velocities obtained from blood pool Doppler assessment of the inflow and outflow tract of the functioning single ventricle. In other words, the FUEL Trial MPI was determined by measuring the cardiac time intervals using pulsed-wave Doppler velocity spectra of the ventricular inflow and outflow of the single functioning ventricle.
Echocardiograms were performed by sonographers with specific training for this protocol. The primary outcome of interest was MPI using Doppler-based measures of inflow and outflow duration. The duration of inflow into the dominant ventricle and outflow across the dominant semilunar valve were measured and used to calculate MPI using the standard formula. Tei C, Ling L H, Hodge D O, et al.: New index of combined systolic and diastolic myocardial performance: a simple and reproducible measure of cardiac—a study in normals and dilated cardiomyopathy. J Cardiol, 26(6):357-66 (1995); and Pellet A A et al.: The Tei Index Methodology and Disease State Values. Echocardiography: A Jrnl Of CV Ultrasound & Allied Tech, 21(7):669-672 (2004) Additional tissue Doppler images were obtained and used to calculate the tissue Doppler based MPI as previously described. Harada K, Tamura M, Toyono M et al.: Comparison of the right ventricular Tei index by tissue Doppler imaging to that obtained by pulsed Doppler in children without heart disease. Am J Cardiol, 90(5):566-9 (2002). Whenever possible, three measurements were made and the mean duration was used for the calculation.
as §1
Baseline clinical testing completed before drug initiation included a blood draw to measure brain-type natriuretic peptide (BNP) level, a cardiopulmonary exercise test (CPET) using a standardized cycle ergometer ramp protocol, a standardized echocardiogram, and an assessment of peripheral vascular function using peripheral arterial tonometry (PAT) measured by finger cuff (EndoPAT; Itamar Medical, Israel). […]

[3] = test system: adolescents with SVHD who had undergone Fontan palliation; assay: FUEL trial, resting data; type: in vivo, human
Description: (§2) The FUEL Trial was conducted at 30 centers around the world. […] (Funded by Mezzion Pharma Co. Ltd., and conducted by the National Heart, Lung, and Blood Institute-funded Pediatric Heart Network; ClinicalTrials.gov number NCT02741115).
as §1
Individuals between the ages of 12 and 18 years (inclusive) who had undergone the Fontan procedure, who were not receiving treatment with a PDE5 inhibitor, who were ≥40 kg, and who met the minimum height requirement for cycle ergometry (≥132 cm) were eligible for enrollment.
Randomization assignments were generated by a web-based algorithm after confirmation of trial eligibility and consent.
(§3) Baseline clinical testing completed before drug initiation included a blood draw to measure brain-type natriuretic peptide (BNP) level, a cardiopulmonary exercise test (CPET) using a standardized cycle ergometer ramp protocol, a standardized echocardiogram, and an assessment of peripheral vascular function using peripheral arterial tonometry (PAT) measured by finger cuff (EndoPAT; Itamar Medical, Israel). Participants who achieved maximal effort, defined as respiratory exchange ratio (RER)≥1.10 at peak exercise during CPET, were eligible for randomization and study drug initiation. […] End-of-study clinical testing included repeat measurement of serum BNP, CPET, echocardiogram, and PAT.
A sample size of 200 participants per arm was chosen to allow for 90% power to detect a mean treatment difference in change from baseline to 26-week testing in max VO2 of 10% with a type 1 error of 0.05. The following assumption were made: a baseline standard deviation of 7.235 ml/kg/min, a correlation between max VO2 measurements of 0.33, a drop-out and incomplete testing rate of 10%, and failure to reach maximal effort at the 26-week exercise testing in 15% of participants. These assumptions were based on historical data and reflect a conservative approach to assessing within-participant correlations and failure to reach maximal effort. The primary analysis used the intention-to-treat population to evaluate the difference in the change in the primary outcome between treatment arms. This difference was assessed with an analysis of covariance (ANCOVA) with fixed factors for ventricular morphology (single left versus single right or mixed) and treatment group, with a continuous covariate of baseline max VO2. For those without data at the 26-week visit, this value was imputed as equal to the baseline value (no change). […] Secondary outcomes of continuous data points were analyzed in the manner described for the primary outcome. […]

[4] = test system: adolescents with Fontan physiology; settings: cited from earlier work
[5] = test system: adolescents with SVHD who had undergone Fontan palliation; assay: FUEL trial, cardiopulmonary exercise test (cycle ergometer ramp protocol), peak exercise and ventilatory anaerobic threshold; type: in vivo, human
Description: as §2, §1, §3
A sample size of 200 participants per arm was chosen to allow for 90% power to detect a mean treatment difference in change from baseline to 26-week testing in max VO2 of 10% with a type 1 error of 0.05. The following assumption were made: a baseline standard deviation of 7.235 ml/kg/min, a correlation between max VO2 measurements of 0.33, a drop-out and incomplete testing rate of 10%, and failure to reach maximal effort at the 26-week exercise testing in 15% of participants. These assumptions were based on historical data and reflect a conservative approach to assessing within-participant correlations and failure to reach maximal effort. The primary analysis used the intention-to-treat population to evaluate the difference in the change in the primary outcome between treatment arms. This difference was assessed with an analysis of covariance (ANCOVA) with fixed factors for ventricular morphology (single left versus single right or mixed) and treatment group, with a continuous covariate of baseline max VO2. For those without data at the 26-week visit, this value was imputed as equal to the baseline value (no change). Secondary analyses included participants who successfully completed the protocol with measurable values at each of the secondary endpoints. Secondary outcomes of continuous data points were analyzed in the manner described for the primary outcome. In order to assess the generalizability of findings at the ventilatory anaerobic threshold, demographic and clinical characteristics were compared between participants without paired VO2 at VAT data and those comprising the remainder of the cohort.
The FUEL Trial was a Phase III clinical trial conducted at 30 centers. […] The primary outcome was the between group difference in change in oxygen consumption at peak exercise. Secondary outcomes included between group differences in changes in sub-maximal exercise at the ventilatory anaerobic threshold (VAT), the myocardial performance index (MPI), the natural log of the reactive hyperemia index (lnRHI), and serum brain-type natriuretic peptide (BNP). […]

[6] = 87.5 mg twice daily, baseline to week 26
[7] = baseline before drug, mean ± SD (n)

CCCOc1ccc(S(=O)(=O)NCCC2CCCN2C)cc1-c1nc2c(CCC)nn(C)c2c(=O)[nH]1 (centres unmarked) [Udenafil, udenafil]
Participants who experienced a serious adverse event ([1]; human, in vivo, 26 weeks): 14 | Serious adverse events with possible, probable, or definite relationship to study drug ([1]; human, in vivo, 26 weeks): 3 events | Adverse events more common than in the placebo group ([1]; in vivo): Headache, facial flushing, abdominal pain, epistaxis, and erection (male participants) were more common | Priapism ([1]; in vivo): no reported episodes of priapism | Serious adverse events related to study drug, kind ([1]; in vivo): unilateral retinal artery and vein thrombosis, transient lower extremity diplegia, and transient dyspnea | Non-serious adverse event: increased erection, participants ([1]; male, human, in vivo, 26 weeks): 13 (11.7) n (%) | Deaths ([1]; study cohort, 26 weeks): no deaths | MPI, max of the difference Week 26 − Baseline ([2]; 87.5 mg twice daily): 0.2 | MPI, median (interquartile range) of the difference Week 26 − Baseline ([2]; 87.5 mg twice daily): −0.01 (−0.11, 0.05) | MPI, min of the difference Week 26 − Baseline ([2]; 87.5 mg twice daily): −.3 | MPI difference, Week 26 − Baseline, mean (SD) ([2]; 87.5 mg twice daily): 122: −0.02 (0.113) | MPI difference, Week 26 − Baseline, mean (SD) ([2]; 87.5 mg twice daily, listed as udenafil): −0.02 | MPI, LS mean dif A − B (SE), baseline ([2]; udenafil minus placebo, baseline, p 0.818): −0.0 (0.018) | MPI, LS mean dif A − B (SE), Week 26 ([2]; udenafil minus placebo, week 26, p 0.024): −0.04 (0.018) | MPI, LS mean dif A − B (SE), difference Week 26 − Baseline ([2]; udenafil minus placebo, p 0.028): −0.03 (0.014) | Resting oxygen saturation, change ([3]; 87.5 mg twice daily, baseline to week 26, mean ± SD (n), p 0.002 vs placebo): 0.5% | Resting diastolic blood pressure, change ([3]; 87.5 mg twice daily, baseline to week 26, mean ± SD (n), p 0.003 vs placebo): −2.9 mmHg | Resting diastolic blood pressure, change vs placebo (in words) ([3]; baseline to 26-week testing): small but statistically significant decrease | Resting heart rate, respiratory rate, or systolic blood pressure, change vs placebo (in words) ([3]; baseline to 26-week testing): no difference | Resting oxygen saturation, change vs placebo (in words) ([3]; baseline to 26-week testing): small but statistically significant increase | Average serum concentration ([4]; 87.5 mg twice daily compared with other tested regimens): highest average serum concentration | Dose-limiting adverse events ([4]; 87.5 mg twice daily): not associated with dose-limiting adverse events | Tolerability ([4]; all tested dosing regimens): tolerability at all tested dosing regimens | Peak VO2 (VO2 max), increase in percent [5, 6]: 2.8% | VE/VCO2 at VAT, decrease in percent [5, 6]: 2.1% | Work rate at VAT, improvement in percent [5, 6]: 5.5% and 5.2% | VO2 at VAT, improvement in percent ([5]; 87.5 mg twice daily, baseline to week 26, paired data): 3.2% | Anaerobic threshold oxygen consumption (VO2 at VAT), change ([5]; 87.5 mg twice daily, baseline to week 26, paired data, mean ± SD (n), p 0.023 vs placebo (p=0.012)): 30 mL/min and 33 ± 185 mL/min and 29.7 mL/min | Peak exercise heart rate, baseline [5, 7]: 165 ± 20 (200) bpm | Peak exercise minute ventilation, baseline [5, 7]: 71 ± 21 (199) L/min | Peak exercise respiratory rate, baseline [5, 7]: 51 ± 11 (199) breaths/min | Peak exercise work rate, baseline [5, 7]: 120 ± 32 (198) W

— patent publication US12576081B2 (MEZZION PHARMA CO., LTD., priority 2019, dated 2026)
